Laboratory results: PMC5201331, “Subchronic Toxicities of HZ1006, a Hydroxamate-Based Histone Deacetylase Inhibitor, in Beagle Dogs and Sprague-Dawley Rats” (International Journal of Environmental Research and Public …, 2016)

Test system: Beagle dogs
Assay: Subchronic toxicity test in Beagle dogs: hematology
Format: in vivo
Description: HZ1006 was administered orally to dogs (four/sex/group) at doses of 80, 40, 20, 5 and 0 (control) mg/kg/day, and the dosage volume was 2 mL/kg. The dogs received test doses with the exact amounts on a weekly basis based on current body weights. […] The other dogs in the above groups were dissected on the planned days. For the other groups, half of the dogs were anatomized on d28 and the remaining half on d42.
The following indexes were examined for the dogs used in the study, twice during the pre-dosage period and on d14, d28 and d42. The following parameters were evaluated on d28 and d42 for the rats in the study:
Blood samples of the animals were collected in tubes containing ethylenediamine tetraacetic acid (EDTA) and tested using an ADVIA2120 Hematology Autoanalyzer (Bayer, Leverkusen, Germany). The following indexes were examined: hemoglobin concentration (Hb), red blood cell count (RBC),mean corpuscular volume (MCV), hematocrit (HCT), mean corpuscular hemoglobin concentration (MCHC), mean corpuscular hemoglobin (MCH), white blood cell count (WBC), platelet count (Plt), WBC differential counts [neutrophilcyte (Neu), eosinophilic granulocyte (Eos), basophilic leukocyte (Bas), lymphocyte (Lym), and monocyte (Mon)] and reticulocytes (Ret). The serum coagulation times of the blood samples (1.8-mL samples were mixed with 0.2 mL sodium citrate), including prothrombin time (PT), fibrinogen (FIB), activated partial thromboplastin time (APTT), and thrombin time (TT), were tested using an MC10 plus Blood Coagulation Analyzer from Shanghai San Jose Medical Products Co., Ltd. (Shanghai, China).

[1] = dog ♀6 (80 mg/kg/day oral), d0 (pre-dose)
[2] = dog ♀6 (80 mg/kg/day oral), d14 line (moribund, euthanized d8)
[3] = dog ♀28 (40 mg/kg/day oral), d0 (pre-dose)
[4] = dog ♀28 (40 mg/kg/day oral), d14 (died d16)
[5] = dogs, 5 mg/kg/day oral, d0 (pre-dose)
[6] = dogs, 5 mg/kg/day oral, d42 (recovery)
[7] = dogs, 20 mg/kg/day oral, d0 (pre-dose)
[8] = dogs, 20 mg/kg/day oral, d42 (recovery)

## CCCCCCCNc1cc(/C=C/C(=O)NO)ccc1OCCN(CC)CC [HZ1006]
[1]
  APTT: Activated partial thromboplastin time: 13.9 s
  RET: Reticulocytes: 1.37%
[2]
  APTT: Activated partial thromboplastin time: 48.7 s
  RET: Reticulocytes: 0.14%
[3]
  APTT: Activated partial thromboplastin time: 12.4 s
  RET: Reticulocytes: 0.75%
[4]
  APTT: Activated partial thromboplastin time: 18.5 s
  RET: Reticulocytes: 0.04%
[5]
  APTT: Activated partial thromboplastin time: 13.6 ± 0.6 s
  FIB: Fibrinogen: 2.25 ± 0.37 g/L
  HCT: Hematocrit: 43.0 ± 2.6%
  HGB: Hemoglobin concentration: 139 ± 8 g/L
  MON: Monocyte: 4.4 ± 1.6%
  RBC: Red blood cell count: 6.31 ± 0.45 ×10^12/L
  RET: Reticulocytes: 0.77 ± 0.38%
dogs, 5 mg/kg/day oral, d14
  APTT: Activated partial thromboplastin time: 13.2 ± 0.6 s
  FIB: Fibrinogen: 2.53 ± 0.46 g/L
  HCT: Hematocrit: 41.8 ± 2.7%
  HGB: Hemoglobin concentration: 138 ± 9 g/L
  MON: Monocyte: 4.2 ± 1.0%
  RBC: Red blood cell count: 6.23 ± 0.46 ×10^12/L
  RET: Reticulocytes: 0.62 ± 0.29%
dogs, 5 mg/kg/day oral, d28
  APTT: Activated partial thromboplastin time: 13.1 ± 0.5 s
  FIB: Fibrinogen: 2.56 ± 0.40 g/L
  HCT: Hematocrit: 41.6 ± 2.4%
  HGB: Hemoglobin concentration: 135 ± 8 g/L
  MON: Monocyte: 4.4 ± 1.4%
  RBC: Red blood cell count: 6.22 ± 0.43 ×10^12/L
  RET: Reticulocytes: 0.49 ± 0.23%
[6]
  APTT: Activated partial thromboplastin time: 13.4 ± 0.4 s
  FIB: Fibrinogen: 2.89 ± 0.60 g/L
  HCT: Hematocrit: 41.0 ± 1.8%
  HGB: Hemoglobin concentration: 134 ± 7 g/L
  MON: Monocyte: 4.0 ± 1.2%
  RBC: Red blood cell count: 6.21 ± 0.36 ×10^12/L
  RET: Reticulocytes: 0.61 ± 0.22%
[7]
  APTT: Activated partial thromboplastin time: 12.4 ± 0.3 s
  FIB: Fibrinogen: 4.07 ± 0.94 g/L
  HCT: Hematocrit: 42.2 ± 3.9%
  HGB: Hemoglobin concentration: 142 ± 13 g/L
  MON: Monocyte: 4.7 ± 1.3%
  RBC: Red blood cell count: 6.20 ± 0.58 ×10^12/L
  RET: Reticulocytes: 0.96 ± 0.24%
dogs, 20 mg/kg/day oral, d14
  APTT: Activated partial thromboplastin time: 12.5 ± 0.5 s
  FIB: Fibrinogen: 4.30 ± 1.17 g/L
  HCT: Hematocrit: 36.9 ± 2.2 %
  HGB: Hemoglobin concentration: 118 ± 7 g/L
  MON: Monocyte: 8.0 ± 2.3 %
  RBC: Red blood cell count: 5.57 ± 0.30 ×10^12/L
  RET: Reticulocytes: 0.53 ± 0.23 %
dogs, 20 mg/kg/day oral, d28
  APTT: Activated partial thromboplastin time: 12.0 ± 0.7 s
  FIB: Fibrinogen: 4.48 ± 1.68 g/L
  HCT: Hematocrit: 36.6 ± 1.0 %
  HGB: Hemoglobin concentration: 118 ± 3 g/L
  MON: Monocyte: 9.0 ± 1.4 %
  RBC: Red blood cell count: 5.57 ± 0.16 ×10^12/L
  RET: Reticulocytes: 0.54 ± 0.19 %
[8]
  APTT: Activated partial thromboplastin time: 12.8 ± 0.3 s
  FIB: Fibrinogen: 4.26 ± 0.49 g/L
  HCT: Hematocrit: 39.4 ± 1.7%
  HGB: Hemoglobin concentration: 128 ± 8 g/L
